ChEMBL document CHEMBL5113500, “New brefeldin A-cinnamic acid ester derivatives as potential antitumor agents: Design, synthesis and biological evaluation” (Eur J Med Chem, 2022)

Legend:
HepG2 = assay: Cell cycle arrest in human HepG2 cells assessed as accumulation at G2/M phase at 0.8 uM measured after 24 hrs by propidium iodide staining based flow cytometry (reference value: 19.93%); type: functional
[1] = Acute toxicity in ICR mouse assessed as pathological change in kidney at 100 mg/kg, ip measured after 6 days; type: organism-based; settings: in vivo, 144 h, time 6 day

In the case of C[C@H]1CCC/C=C/[C@@H]2C[C@H](O)C[C@H]2[C@H](OC(=O)/C=C/c2ccc(N(C)C)cc2)/C=C/C(=O)O1, the Activity (HepG2) is reported as 15.85% and the Activity [1] is reported as “Non-Toxic”.
